Results on three compounds are retold here after US20230107216A1, “PANTETHEINE DERIVATIVES AND USES THEREOF” (Comet Therapeutics, Inc., priority 2018, published 2023).

Where two headings read alike, the source gives them in different places.

In experiment [1] the test system is primary fibroblasts (healthy controls and PA, MMA, BCKDK, PDH, VLCAD, LS, PC, GA, VLCFA, KSS, FXN, HD). Kind of experiment: Measurement of ROS (H2DCFDA) in primary fibroblasts. The conditions noted are these: Homo sapiens, procedure Example 812, Assay Condition C, read-out: Decreased ROS by at least 10%. It is filed as cell-based, human. An outline of the steps: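 Patient and healthy-control primary fibroblasts switched to supplemented DMEM 24 h before assay, then treated with compound (10 μM) plus H2DCFDA (22 μM) for 2 h (PA, MMA lines) or 24 h (other lines). Kinetic fluorescence at 492/527 nm over 60 min; only live cells analysed.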

Experiment [2] relates to oligodendrocyte precursor cells (OPC) in mixed brain cultures. Kind of experiment: Oligodendrocyte precursor cells (OPC) proliferation, O4+ cell count. It is filed as cell-based, mouse. The conditions noted are these: 10 uM. Here is the method: The effect of compounds of the present disclosure was determined on oligodendrocyte precursor cells proliferation (OPC).
Cell culture. Brains of wild type mice (whole brain from 1 or 2 mouse pups) less than postnatal day (P) 2 were isolated and cultured. Briefly, following removal of the meninges, cells were dissociated with 0.25% EDTA/CMF-DMEM and 1% Trypsin (1:1), plated at a density of 75,000 cells/on 0.1 mg/ml poly-L-lysine coated borosilicate glass coverslips in 24-well plates, grown in OPC differentiation media (Oligo media) consisting of DMEM/F12 (Invitrogen 21331-020) supplemented with 1% FBS, 1% N2 Neural Supplement (Invitrogen 17502-048) and PDGF receptor alpha growth factor (Invitrogen 17502-048). Cells were fed every other day and allowed to grow for 7 days in vitro (DIV).
OPCs treatment with compounds of the present disclosure. Cells were treated with compounds of the present disclosure (50-10 μM) or vehicle (0.1% DMSO) starting at 7 DIV. Media was replaced daily with freshly made working solutions of compounds or vehicle for either 48 h (9 DIV total) or 96 h (11 DIV). The 48 h group consisted of 1 coverslip per condition. The 96 h group was treated in duplicate.
Fresh aliquots of compounds of the present disclosure were made up on the day of treatment, briefly, a 50 mM stock was thawed and used to make up fresh 50 μM working solution in Oligo Media. The fresh 50 μM working solution was diluted further in Oligo Media to make 10 μM working solution. Vehicle controls was made up in fresh Oligo Media using the appropriate amount of vehicle (DMSO). Coverslips were stored in clean 24-well plates at 4° C. until fixed-staining. Cells were imaged using Leica DM5500 fluorescent microscope with LAS-X software.
Exposure settings were maintained at the same rate across compounds of the same time-point. Cells were imaged at 20× and 40× magnifications. At least 5 images were taken per condition. Most conditions had at least 5 images that were counted. 20× images were utilized for counting DAPI (cell nuclei) and O4+ cells.
Total DAPI per image for all images was counted using ImageJ as here indicated. • Image was converted to 8 bit • Blue Channel (DAPI) was automatically thresholded by default ImageJ settings • Image noise was reduced by ImageJ>Process>Noise>Despeckle • ImageJ>Process>Binary>Watershed was used to automatically separate merged cell nuclei • ImageJ>Analyze>Analyze Particles was used to obtain final count of DAPI per image • Total number of DAPI-positive cells
Total number of O4+ cells per 20× image was manually counted using Adobe Photoshop: • All cell bodies of OPCs with underlying DAPI stain were counted as an O4+ cell • Total number of O4+ cells were recorded in Excel Spreadsheet O4+ cells in mixed brain cultures of wild type mice <P2 treated with compounds of the present disclosure or vehicle were quantified per condition (time point and concentration). The following formula was used to normalize the total cell counts within a compound as well as across compounds treated for the same duration (48h vs. 96h):
(number of O4+cell counts in Compound X/Average DAPI count for Compound X)*Total Average DAPI count across compounds of same Time Point
Values were plotted as Scatter Interval plots in Origin. Each data point represents a single image from which O4+ cell values were obtained. Data are presented as mean±S.E.
Images are at 20× magnification and represent 1-2 coverslips per group. Scale bar, 50 μm.

Experiment [3] relates to Venular Endothelial cells (HUVEC) (4H system). Kind of experiment: BioMAP 4H system (IL-4 and histamine). It is filed as cell-based, human. The conditions noted are these: Homo sapiens, HUVEC, 24 h; 1 uM; procedure of Example 826; read-out: % decrease in VEGFRII.
Experiment [4] deals with Coronary artery smooth muscle cells (CASM3C system). Description: BioMAP CASM3C system (IL-1β, TNFα, IFNγ). It is filed as cell-based, human. The conditions noted are these: 10 uM.
The subject of experiment [5] is Dermal fibroblasts (HDF3CGF system). Description: BioMAP HDF3CGF system (IL-1β, TNFα, IFNγ, EGF, bFGF, PDGF-BB). It is filed as cell-based, human.
Experiment [6] has as its system HepG2 cells. Kind of experiment: Glucose uptake (Glucose Uptake-Glo). It is filed as cell-based. The conditions noted are these: Homo sapiens, 50 uM, read-out: % increase in Glucose Uptake.
Experiment [7] has as its system Bronchial epithelial cells co-cultured with dermal fibroblast (BF4T system). Description: BioMAP BF4T system (TNFα and IL-4). It is filed as cell-based, human. To be noted: Homo sapiens, 24 h; 10 uM; procedure of Example 830; read-out: % increase in VCAM-1.
Experiment [8] deals with Peripheral blood mononuclear cells co-cultured with B-cells (BT system). To be noted: 1 uM; procedure of Example 829.
Experiment [9] deals with Pkd1−/− mouse inner medullary collecting duct cells (mIMRFNPKD 5E4). Description: mPKD 3D cyst swelling assay (forskolin-induced). It is filed as cell-based. The conditions noted are these: after 72 hours of forskolin exposure. The protocol: Cell model and control compounds. mIMCD3 WT cells were obtained via ATCC and modified to create the mIMRFNPKD 5E4 cell line, which has a CRISPR-Cas mediated knockout for Pkd1 as described SLAS Discov. 2017 September; 22(8):974-984. doi: 10.1177/2472555217716056. Cells were cultured in DMEM/F12 (Sigma)+10% FBS (Sigma)+0.5% Pen/Strep (Gibco)+1% GluMax (Gibco). Control compounds used were forskolin (Calbiochem, 344282), Rapamycin (Selleckchem, S1039) and Staurosporin (Selleckchem, S1421).
The 3D mouse cyst swelling assay was performed with Pkd1^−/− mouse inner medullary collecting duct cells (mIMRFNPKD 5E4). The cyst swelling protocol that was used was described previously (SLAS Discov. 2017 September; 22(8):974-984. doi: 10.1177/2472555217716056), with further optimization.
3D culture and compound exposure. mIMRFNPKD 5E4 cells were mixed with Cyst-Gel (OcellO BV). 15 μL of cell-gel mix was pipetted to 384-well plates (Greiner μClear, Greiner Bio-One B.V.) using a CyBio Felix 96/60 robotic liquid dispenser (Analyik Jena AG). Gel-cell mix was plated at a final cell density of 2250 cells per well. After gel polymerization at 37° C. for 30 minutes, 33 μL culture medium was added to each well. Cells were grown in the gel for 96 hours, after which the cells were co-exposed with forskolin (Calbiochem, 344282) and one the following molecules: reference compound Rapamycin (SelleckChem, S1039), toxic control compound Staurosporin (SelleckChem, S1421) or test compounds.
Sample processing. After 72 hours, cultures were fixed with 4% Formaldehyde (Sigma Aldrich) and simultaneously permeabilized with 0.2% Triton-X100 (Sigma Aldrich) and stained with 0.25 μM rhodamine-phalloidin (Sigma Aldrich) and 0.1% Hoechst 33258 (Sigma Aldrich) in 1×PBS (Sigma Aldrich) for 2 days at 4° C., protected from light. After fixation and staining, plates were washed with 1×PBS, sealed with a Greiner SilverSeal (Greiner Bio-One B.V.) and stored at 4° C. prior to imaging.
Imaging and image analysis. Imaging was done using Molecular Devices ImageXpress Micro XLS (Molecular Devices) with a 4× NIKON objective. For each well around 35 images in the Z-direction were made for both channels, capturing the whole z-plane in each image. Image analysis was performed using Ominer™ software (OcellO BV). Cysts were segmented using detection of Hoechst-stained nuclei and Rhodamine-phalloidin-stained cellular f-actin. Cyst area was determined by calculating for the area in px of each object in every in-focus plain. This was averaged per well. (N represented is number of wells) Fraction of apoptotic nuclei as an indicator of toxicity was calculated as the amount of nuclei without actin signal relative to the total amount of nuclei, both as count-measurements. Statistics was done using KNIME Analytics Platform (Konstanz, Germany, http://www.knime.org/), graphs were prepared in GraphPad Prism 6 (GraphPad Software, La Jolla, Calif.).

In experiment [10] the test system is Peripheral blood mononuclear cells co-cultured with B-cells (BT system). Kind of experiment: cells. The conditions noted are these: Homo sapiens, 72 h, read-out: % increase in sIL-6.
The subject of experiment [11] is Peripheral blood mononuclear cells co-cultured with venular endothelial cells (HUVEC) (LPS system). Description: BioMAP LPS system. It is filed as cell-based, human. The conditions noted are these: procedure of Example 827.
Experiment [12] concerns HepG2 cells. Description: Mitochondrial membrane potential (MITO-ID MP detection Kit). It is filed as cell-based. The conditions noted are these: Homo sapiens, 168 h, 10 uM, 7 days, read-out: % decrease in Mitochondrial Membrane Potential. In outline:
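Cells plated at 160000 cells/mL in DMEM with 10% FBS and 1% Pen-Strep, adhered overnight at 37° C., 5% CO2. Exposure to test compounds (50-10 μM) or 0.2% DMSO for 7 days without media change; membrane potential measured with MITO-ID MP detection kit per manufacturer.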

The subject of experiment [13] is HepG2 cells. Kind of experiment: MitoBiogenesis In-Cell ELISA (COX-I, SDH-A). It is filed as cell-based. The conditions noted are these: Homo sapiens, 168 h, 50 uM, 7 days, read-out: % increase in Mitochondrial Biogenesis. The source says: We determined the effect of compounds of the present disclosure on the levels of two mitochondrial proteins using MitoBiogenesis™ In-Cell ELISA Kit (Abcam ab110216) according to manufacturer's instructions. The two proteins are each subunits of a different oxidative phosphorylation enzyme complex, one protein being subunit I of Complex IV (COX-1), which is mitochondrial (mt)DNA-encoded, and the other being the 70 kDa subunit of Complex II (SDH-A), which is nuclear (n)DNA-encoded. Complex IV includes several proteins which are encoded in the mitochondrion, while the proteins of Complex II are entirely encoded in the nucleus. HepG2 cells (ATCC, HB-8065) were cultured (5% CO2 at 37° C.) and plated in Poly-D-Lysine 384-Well plate (Corning, 356663) at a density of 40,000 cells/mL in 50 μL. Culture and assay media consisted of DMEM (Gibco, 11995-065) supplemented with 1% Penicillin-Streptomycin and 10% FBS (Hyclone, SV30087.03). Cells were allowed to settle for 30 min at room temperature and further incubated overnight (37° C. and 5% CO2) for adherence. Next day, 50-5 μM of the negative control Chloramphenicol (Selleck, S1677), test compounds (50-10 μM) and vehicle DMSO (0.2%) were added at the recommended volumes to the 384-well plate for 7 days without media change using a Tecan compound dispenser. All the solutions and wash buffers were prepared and dispensed according to manufacturer's volumes for a 384-well plate format. Effects of compounds on mtDNA-encoded protein expression (COX-I) and nuclear DNA-encoded mitochondrial protein expression (SDH-A) were expressed as relative signal (nm) to vehicle of a n=2 per conditions.

Regarding `COC(=O)/C=C/C(=O)SCCNC(=O)CCNC(=O)[C@H](O)C(C)(C)CO` [Compound 20, Methyl (R,E)-4-((2-(3-(2,4-dihydroxy-3,3-dimethylbutanamido)propanamido)ethyl)thio)-4-oxobut-2-enoate], the inhibition at 10 µM in experiment [1] (Fibroblast, NPC1 GM22879) was at least 10%; in experiment [1] (FXN GM04078), at least 10%. Also, the “% Increase OPC proliferation” value in experiment [2] is on record as at least 25%.
As to `COC(=O)CCC(=O)CC(=O)SCCNC(=O)CCNC(=O)[C@H](O)C(C)(C)COC(C)=O` [Compound 141, methyl 6-[(2-[3-[(2R)-4-(acetyloxy)-2-hydroxy-3,3-dimethylbutanamido]propanamido]ethyl)sulfanyl]-4,6-dioxohexanoate], the inhibition at 1 µM in experiment [3] was at least 20%; in experiment [5] (Homo sapiens, Fibroblast, 24 h, 1 uM, read-out: % decrease in Collagen III), at least 10%. Besides, the “% increase in Proliferation” value in experiment [4] (procedure of Example 832) is reported as at least 10%. In addition, the inhibition at 10 µM in experiment [4] (Homo sapiens, 24 h, read-out: % decrease in Thrombomodulin) is at least 10%; in experiment [11] (Homo sapiens, HUVEC, 24 h, 10 uM, read-out: % decrease in sPGE2), at least 10%. In addition, in experiment [5] (1 uM, procedure of Example 833), the “% decrease in Collagen I” value was at least 10%. In addition, the “% increase in SRB” value in [5] (10 uM) is on record as at least 10%. For the same compound, in the experiment with HepG2 cells [6], the activation at 50 µM was at least 30%. Also, the activation at 10 µM in experiment [7] was at least 20%; in experiment [11] (Homo sapiens, HUVEC, 24 h, 10 uM, read-out: % increase in sTNFα) it was at least 10%. In addition, in experiment [8], the “% decrease in B-cell proliferation” value is at least 10%. Further, in experiment [9] (50 uM), the “% prevention of forskolin-induced cyst swelling” value is reported as at least 10%. Further, the activation at 1 µM in [10] was at least 20%. Also, the “% decrease in M-CSF” value in experiment [11] (1 uM) is recorded as at least 10%.
Take `COC(=O)CCC(=O)SCCNC(=O)CCNC(=O)[C@H](O)C(C)(C)COP1(=O)OCCO1` [Compound 1308]: in the experiment on HepG2 cells [12], the inhibition at 10 µM was over 50%. Besides, the “% prevention of forskolin-induced cyst swelling” value in experiment [9] (10 uM) is listed as at least 10%. Further, the activation at 50 µM in the experiment on HepG2 cells [13] is over 5%.
